Source: paper PMC5845645, “QSAR-Driven Design and Discovery of Novel Compounds With Antiplasmodial and Transmission Blocking Activities” (Frontiers in Pharmacology, 2018)
Read-outs that look alike come from different tables or passages of the source.

Legend:
P. falciparum 3D7 = test: Growth inhibition by SYBR Green I, chloroquine-sensitive strain; type: cell-based; conditions: Plasmodium falciparum, read-out: IC50 3D7
Method: (§1) Chloroquine-sensitive (3D7) and multidrug-resistant (W2) strains were cultured in RPMI 1640 medium supplemented with 0.05 mg/mL gentamycin, 38.4 mM HEPES, 0.2% sodium bicarbonate, and 10% O^+ human serum, as previously described in a standardized protocol ([Trager and Jensen, 1976]). Then, erythrocytes were added to the culture to obtain a 5% hematocrit, and incubated at 37°C under 5% CO2 atmosphere, with daily exchange of medium. The parasitemia was monitored daily in smears stained with Giemsa. Synchronic cultures in the ring stage were obtained by two consecutive treatments at 48 h intervals with a 5% solution of D-sorbitol ([Lambros and Vanderberg, 1979]).
(§2) Parasites synchronized at the ring stage, with 0.5% parasitemia and 2% hematocrit were distributed in each well, separately. The compounds were tested in triplicates, using 12 point of concentration, prepared in two-fold dilution (40 μM – ∼0.019 μM) over 72 h. Chloroquine and pyrimethamine were used as control. Subsequently, the in vitro susceptibility of parasite to tested drugs was measured by SYBR Green according to [Hartwig et al. (2013)]. Briefly, 100 μL of lysis buffer (20 mM Tris, 5 mM EDTA, 0.008% wt/vol saponin, 0.08% vol/vol Triton X-100, and 0.4 μL/mL of SYBR Green) were added in each well of a new black 96-well plate and 100 μL of parasite culture incubated with drugs were added. After homogenization, the plates were incubated for 1 h in the dark. Fluorescence was measured at 490 nm excitation and 540 nm emission (CLARIOstar, Labtech BMG). The IC50 was calculated by plotting the Log doses vs. Inhibition (expressed as a percentage relative to the control) in Prism 6 (GraphPad Software Inc.).

P. falciparum W2 = test: Growth inhibition by SYBR Green I, multidrug-resistant strain; type: cell-based; conditions: Plasmodium falciparum, read-out: IC50 W2
Method: as §1, §2

PfdUTPase = target: PfdUTPase; design: method as in earlier work; conditions: pKi = -logKi of literature Ki, ref Nguyen et al., 2005, 2006, Whittingham et al., McCarthy et al., 2009, Baragaña et al., 2011, Hampton et al., Ruda et al.; cited from earlier work
[1] = Cytotoxicity assay (MTT reduction); type: cell-based, monkey; conditions: monkey; COS7 cells, 72 h
Method: (§3) Cytotoxicity assays used COS7 cells (fibroblast-like cell lines derived from monkey kidney tissue), grown in DMEM medium supplemented with 10% fetal bovine serum and 0.05 mg/mL gentamicin in atmosphere containing 5% CO2 at 37°C. Drug cytotoxicity in COS7 cells was determined in duplicate, using 12 point of concentration, prepared in two-fold dilution (200 μM – ∼ 0.097 μM). After the incubation period (72 h), the cell viability analysis were done by the MMT reduction method (3-[4,5-dimethyl-thiazol-2-yl]-2,5-diphenyltetrazolium […] ([Mosmann, 1983]). The optical density was determined at 570 nm (CLARIOstar, Labtech BMG) and the 50% cytotoxicity concentrations (CC50) was expressed as the percent viability relative to the control. The selectivity index of the compounds was determined by the following expression:
(§4) Where COS7 CC50 corresponds to the 50% cytotoxic concentration on COS7 cells and Pf IC50 is the 50 % inhibitory concentration on P. falciparum (3D7).

COS7 cells = test: Cytotoxicity assay (MTT reduction); type: cell-based, monkey; conditions: selectivity index = COS7 CC50 / Pf IC50 (3D7)
Method: as §3, §4

P. berghei ANKA = test: Ookinete assay (gametocyte to ookinete conversion); type: cell-based; conditions: Plasmodium berghei, 24 h, 21°C, ookinete formation relative to DMSO control
Method: All animal procedures were carried out in accordance to the Brazilian College of Animal Experimentation (COBEA). This research protocol was approved by the Ethics Committee of the Institute of Biomedical Sciences – University of Sao Paulo, protocol number 132/2014-CEUA. C57BL/6 mice received an intraperitoneal injection of P. berghei ANKA infected erythrocytes, and four days after infection, a mouse with parasitemia between 4 and 6% and gametocytemia > 0.4% was selected as blood donor for cardiac puncture. Four microliters of the infected blood was dispensed in 80 μl of ookinete medium ([Blagborough et al., 2012]) at 21°C with DMSO control or with 10 μM of the tested compounds. The assay was incubated at 21°C for 24 h and 2 μl of the blood at the bottom of the tubes was spread onto a glass slide, stained with Giemsa and analyzed under a direct light microscope. The total number of formed ookinetes were counted in each slide (triplicate for each condition), and inhibition was calculated in relation to the total ookinetes formed in the control condition.

[2] = design: method as in Hit2Lead library; conditions: calculated; ref Hit2Lead library; cited from earlier work
[3] = asexual blood stage, chloroquine-sensitive 3D7, 72 h
[4] = asexual blood stage, multidrug-resistant W2, 72 h

Compound | PfdUTPase inhibition (pKi) (PfdUTPase) | IC50 (P. falciparum 3D7; [3]) [µM] | IC50 (P. falciparum W2; [4]) [µM] | also measured
CCN(CC)CCCC(C)Nc1ccnc2cc(Cl)ccc12 (stereo not drawn) [Chloroquine, reference compound] |  |  |  | IC50 (P. falciparum 3D7; 3D7, 72 h): 0.011 ± 0.0006 µM; IC50 (P. falciparum W2; W2, 72 h): 0.181 ± 0.027 µM
O=c1ccn(C2CC(O)C(CNC(c3ccccc3)(c3ccccc3)c3ccccc3)O2)c(=O)[nH]1 (stereo not drawn) [Compound 1] | 6.70 |  |  | 
O=c1ccn([C@H]2C[C@H](O)[C@@H](CNC(c3ccccc3)c3ccccc3)O2)c(=O)[nH]1 [Compound 3, 2′,5′-dideoxy-5′-[(diphenylmethyl)amino]uridine] | 6.70 |  |  | 
O=C(O)CCCNC(=O)C(CCOC(c1ccccc1)(c1ccccc1)c1ccccc1)Cn1ccc(=O)[nH]c1=O (stereo not drawn) [Compound 4] | 6.70 |  |  | 
N#Cc1ccc(C(OCC2OC(n3ccc(=O)[nH]c3=O)CC2O)(c2ccccc2)c2ccccc2)cc1 (stereo not drawn) [Compound 20] | 6.03 |  |  | 
CC(C)(C)[Si](C)(C)OC1CC(n2ccc(=O)[nH]c2=O)OC1CNP(=O)(Oc1ccccc1)Oc1ccccc1 (stereo not drawn) [Compound 87] | 4.17 |  |  | 
CC(C)(C)[Si](C)(C)OC1CC(n2ccc(=O)[nH]c2=O)OC1CO (stereo not drawn) [Compound 127] | 3.19 |  |  | 
COc1ccc(C(OCC2OC3C(Oc4nc(=O)ccn43)C2O)(c2ccccc2)c2ccc(OC)cc2)cc1 (stereo not drawn) [LabMol-144] |  | 7.1 ± 2.53 | 4.23 ± 1.18 | CC50 at 72 h [1]: 81.7 ± 25.7 µM; SI (COS7 cells): 11.7; inhibition at 10 µM (P. berghei ANKA): 44.6 ± 2.4%; logS [2]: −5.36
COc1ccc2c(c1)c(/C=C/c1nc3ccccc3c(=O)n1-c1ccccc1)c(C)n2C [LabMol-145] |  | 17.1 ± 16.2 | 15.3 ± 3.29 | CC50 at 72 h [1]: 46 ± 13.4 µM; SI (COS7 cells): 2.7; inhibition at 10 µM (P. berghei ANKA): 13.2 ± 24%; logS [2]: −6.74
COc1ccc(C(OCC2OC(n3ccc(=O)[nH]c3=O)C(O)C2O)(c2ccccc2)c2ccccc2)cc1 (stereo not drawn) [LabMol-146] |  | 6.1 ± 1.95 | 3.2 ± 2.12 | CC50 at 72 h [1]: 52 ± 16.4 µM; inhibition at 10 µM (P. berghei ANKA): 7.3 ± 7.3%; logS [2]: −5.04
CCc1nc(N)nc(N)c1-c1ccc(Cl)cc1 [Pyrimethamine, reference compound] |  | 0.044 ± 0.009 | 14.7 ± 3.94 | 
